# Measurements published in PMC8222254, “Self-assembly of an anion receptor with metal-dependent kinase inhibition and potent in vitro anti-cancer properties” (Nature Communications, 2021).
# Where “and” joins values, the source holds several entries; their conditions need not be identical. Equal values may be shown once.
# Key:
# Experiment in all cases: Kinase inhibition screen, cell-free 33P ATP assay at 10 μM
# Assay type in all cases: biochemical
# [1] = molecular target: T1, 140 purified human kinases (Homo sapiens, UniProt P36897)
# T1 sequence (P36897 34-503): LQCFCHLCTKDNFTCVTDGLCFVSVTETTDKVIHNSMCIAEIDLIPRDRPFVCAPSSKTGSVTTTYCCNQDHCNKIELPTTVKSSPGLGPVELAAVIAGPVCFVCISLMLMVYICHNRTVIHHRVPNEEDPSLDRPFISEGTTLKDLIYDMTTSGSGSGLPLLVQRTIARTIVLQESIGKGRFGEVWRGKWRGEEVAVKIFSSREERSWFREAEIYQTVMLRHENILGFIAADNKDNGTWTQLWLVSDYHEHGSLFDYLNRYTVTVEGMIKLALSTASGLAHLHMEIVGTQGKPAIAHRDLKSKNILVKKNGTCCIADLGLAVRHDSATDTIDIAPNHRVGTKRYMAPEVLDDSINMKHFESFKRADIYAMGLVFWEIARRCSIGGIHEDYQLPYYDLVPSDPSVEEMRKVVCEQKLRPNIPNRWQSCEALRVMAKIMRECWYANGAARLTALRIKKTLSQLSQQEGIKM
# Summary of the method: (§1)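 Radiometric ^33P ATP cell-free format with purified enzymes; both complexes run at 10 μM in duplicate, results plotted on a kinome map via HGNC symbols.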
# [2] = molecular target: 140 purified human kinases (Homo sapiens, UniProt P17948); conditions: VEG-FR
# Chain of 140 purified human kinases (Homo sapiens, UniProt P17948) (P17948 27-1338): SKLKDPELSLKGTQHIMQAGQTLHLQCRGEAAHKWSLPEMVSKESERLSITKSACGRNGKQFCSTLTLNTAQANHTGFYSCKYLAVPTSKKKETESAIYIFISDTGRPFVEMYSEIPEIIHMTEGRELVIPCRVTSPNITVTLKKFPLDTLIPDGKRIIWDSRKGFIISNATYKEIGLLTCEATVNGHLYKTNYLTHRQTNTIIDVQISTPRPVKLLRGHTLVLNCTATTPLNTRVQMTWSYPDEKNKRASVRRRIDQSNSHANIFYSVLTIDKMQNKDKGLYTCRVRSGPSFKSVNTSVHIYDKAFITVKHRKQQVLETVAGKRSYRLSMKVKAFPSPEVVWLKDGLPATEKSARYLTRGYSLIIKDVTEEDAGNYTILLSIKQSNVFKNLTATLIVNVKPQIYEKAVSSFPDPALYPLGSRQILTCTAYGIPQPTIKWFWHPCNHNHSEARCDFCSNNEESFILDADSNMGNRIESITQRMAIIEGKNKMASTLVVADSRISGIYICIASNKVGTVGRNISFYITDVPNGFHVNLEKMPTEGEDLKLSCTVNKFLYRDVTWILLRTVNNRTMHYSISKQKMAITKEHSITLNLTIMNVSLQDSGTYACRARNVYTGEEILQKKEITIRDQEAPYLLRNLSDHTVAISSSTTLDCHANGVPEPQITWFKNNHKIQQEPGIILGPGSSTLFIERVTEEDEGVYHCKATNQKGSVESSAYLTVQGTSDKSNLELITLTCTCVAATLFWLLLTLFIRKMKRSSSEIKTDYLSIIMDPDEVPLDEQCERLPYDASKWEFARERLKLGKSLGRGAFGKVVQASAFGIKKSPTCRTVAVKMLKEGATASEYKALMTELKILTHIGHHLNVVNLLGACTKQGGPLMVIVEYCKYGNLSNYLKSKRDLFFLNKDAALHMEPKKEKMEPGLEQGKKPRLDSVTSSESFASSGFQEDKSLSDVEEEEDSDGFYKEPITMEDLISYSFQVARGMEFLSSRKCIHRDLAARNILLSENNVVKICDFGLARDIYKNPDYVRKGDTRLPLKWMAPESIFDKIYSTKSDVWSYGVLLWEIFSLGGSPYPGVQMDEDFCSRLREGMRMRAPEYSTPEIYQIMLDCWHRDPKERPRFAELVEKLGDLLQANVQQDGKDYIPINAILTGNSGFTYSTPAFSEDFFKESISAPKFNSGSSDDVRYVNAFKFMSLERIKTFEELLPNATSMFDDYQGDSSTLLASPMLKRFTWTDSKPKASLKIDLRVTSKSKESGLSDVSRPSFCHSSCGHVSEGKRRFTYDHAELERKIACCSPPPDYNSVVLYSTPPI
# Summary of the method: as §1
# [3] = molecular target: T2, 140 purified human kinases (Homo sapiens, UniProt Q14164); conditions: IKKe
# T2 sequence (Q14164 1-716): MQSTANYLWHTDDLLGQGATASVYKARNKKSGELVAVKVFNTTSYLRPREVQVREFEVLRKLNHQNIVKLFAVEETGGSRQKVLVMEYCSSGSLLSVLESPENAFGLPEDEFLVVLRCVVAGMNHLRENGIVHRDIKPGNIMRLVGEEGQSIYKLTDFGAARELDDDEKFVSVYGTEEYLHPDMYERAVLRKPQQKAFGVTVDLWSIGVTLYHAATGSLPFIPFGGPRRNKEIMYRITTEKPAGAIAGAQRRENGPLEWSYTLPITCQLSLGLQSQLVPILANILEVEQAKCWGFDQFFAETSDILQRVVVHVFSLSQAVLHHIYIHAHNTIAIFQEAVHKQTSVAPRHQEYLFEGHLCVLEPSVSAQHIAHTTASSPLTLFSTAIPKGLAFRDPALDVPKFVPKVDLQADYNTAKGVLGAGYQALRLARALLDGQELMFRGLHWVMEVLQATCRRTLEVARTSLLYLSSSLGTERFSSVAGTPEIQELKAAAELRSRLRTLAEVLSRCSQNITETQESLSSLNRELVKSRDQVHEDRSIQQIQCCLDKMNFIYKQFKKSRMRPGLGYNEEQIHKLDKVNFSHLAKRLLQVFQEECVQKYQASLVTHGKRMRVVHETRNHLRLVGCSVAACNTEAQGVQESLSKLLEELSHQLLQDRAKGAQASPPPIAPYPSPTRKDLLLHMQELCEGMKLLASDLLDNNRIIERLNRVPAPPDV
# Summary of the method: as §1
# [4] = molecular target: T3, 140 purified human kinases (Homo sapiens, UniProt Q8IW41); conditions: PRAK
# T3 sequence (Q8IW41 1-473): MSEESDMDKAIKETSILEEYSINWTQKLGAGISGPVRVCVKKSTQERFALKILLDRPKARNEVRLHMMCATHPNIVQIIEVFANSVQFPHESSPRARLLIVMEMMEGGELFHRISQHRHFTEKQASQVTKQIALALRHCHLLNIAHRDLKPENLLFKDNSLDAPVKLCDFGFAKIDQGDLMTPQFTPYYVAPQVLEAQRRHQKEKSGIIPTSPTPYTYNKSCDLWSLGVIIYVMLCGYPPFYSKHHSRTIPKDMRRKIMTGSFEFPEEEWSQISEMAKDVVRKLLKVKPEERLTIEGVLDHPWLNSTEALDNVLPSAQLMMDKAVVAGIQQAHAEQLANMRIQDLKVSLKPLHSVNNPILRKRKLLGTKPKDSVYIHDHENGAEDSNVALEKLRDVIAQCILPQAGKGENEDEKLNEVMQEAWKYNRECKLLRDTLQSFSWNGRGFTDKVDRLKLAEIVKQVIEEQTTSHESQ
# Summary of the method: as §1
# [5] = molecular target: 140 purified human kinases (Homo sapiens, UniProt Q9HC98)
# Chain of 140 purified human kinases (Homo sapiens, UniProt Q9HC98) (Q9HC98 whole entry): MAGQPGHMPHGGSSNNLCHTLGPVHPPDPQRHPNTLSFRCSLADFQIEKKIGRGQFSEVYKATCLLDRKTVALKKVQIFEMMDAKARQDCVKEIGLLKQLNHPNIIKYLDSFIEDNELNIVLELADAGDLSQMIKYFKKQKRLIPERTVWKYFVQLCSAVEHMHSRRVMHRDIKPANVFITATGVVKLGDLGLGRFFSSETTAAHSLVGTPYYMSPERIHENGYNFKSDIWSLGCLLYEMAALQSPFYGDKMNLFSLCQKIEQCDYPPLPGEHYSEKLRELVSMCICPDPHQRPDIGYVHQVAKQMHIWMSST
# Summary of the method: as §1
# [6] = molecular target: 140 purified human kinases (Homo sapiens, UniProt P53779)
# Chain of 140 purified human kinases (Homo sapiens, UniProt P53779) (P53779 whole entry): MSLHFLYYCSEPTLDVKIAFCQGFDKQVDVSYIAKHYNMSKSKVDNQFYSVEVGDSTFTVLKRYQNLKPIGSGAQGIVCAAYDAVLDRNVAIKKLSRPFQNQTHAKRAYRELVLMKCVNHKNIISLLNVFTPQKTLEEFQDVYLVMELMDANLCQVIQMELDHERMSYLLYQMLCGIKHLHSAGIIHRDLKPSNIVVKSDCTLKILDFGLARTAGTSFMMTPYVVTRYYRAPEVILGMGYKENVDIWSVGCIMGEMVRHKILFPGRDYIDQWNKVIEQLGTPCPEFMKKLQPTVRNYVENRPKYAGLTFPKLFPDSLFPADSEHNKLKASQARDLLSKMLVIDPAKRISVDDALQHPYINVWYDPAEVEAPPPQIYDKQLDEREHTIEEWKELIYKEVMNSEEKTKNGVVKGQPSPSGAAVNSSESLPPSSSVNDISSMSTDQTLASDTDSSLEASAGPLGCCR
# Summary of the method: as §1
smiles,measurement,setting,value
[Cu+2].[Cu+2].[Cu+2].c1ccc(-c2csc(NCCN(CCNc3nc(-c4ccccn4)cs3)CCNc3nc(-c4ccccn4)cs3)n2)nc1.c1ccc(-c2csc(NCCN(CCNc3nc(-c4ccccn4)cs3)CCNc3nc(-c4ccccn4)cs3)n2)nc1 [[L2Cu3]6+],"% Activation, Mean value",[1]; TGFBR1,30%
same,% Inhibition Run 1,[1]; TGFBR1,-44.2%
same,% Inhibition Run 2,[1]; TGFBR1,-16.7%
same,"% Inhibition, Mean",[1]; TGFBR1,-30%
same,mean % activity,[1]; TGFBR1,130%
same,% activity,"[1]; TGFBR1, Run 1",144.2%
same,% activity,"[1]; TGFBR1, Run 2",116.7%
same,% Activity Run 1,"[1]; TGFBR1, 10 µM",144.20%
same,% Activity Run 2,"[1]; TGFBR1, 10 µM",116.70%
same,% Inhibition Run 1,[2],28.1%
same,% Inhibition Run 2,[2],27.2%
same,"% Inhibition, Mean",[2],28%
same,mean % activity,[2],72%
same,% activity,[2]; Run 1,71.9%
same,% activity,[2]; Run 2,72.8%
same,% Inhibition Run 1,[3],69.9%
same,% Inhibition Run 2,[3],53.3%
same,"% Inhibition, Mean",[3],62%
same,mean % activity,[3],38%
same,% activity,[3]; Run 1,30.1%
same,% activity,[3]; Run 2,46.7%
same,% Inhibition Run 1,[4],79.7%
same,% Inhibition Run 2,[4],79.1%
same,"% Inhibition, Mean",[4],79%
same,mean % activity,[4],21%
same,% activity,[4]; Run 1,20.3%
same,% activity,[4]; Run 2,20.9%
same,% Inhibition Run 1,[5]; NEK6,34.4%
same,% Inhibition Run 2,[5]; NEK6,27.1%
same,"% Inhibition, Mean",[5]; NEK6,31%
same,mean % activity,[5]; NEK6,69%
same,% activity,"[5]; NEK6, Run 1",65.6%
same,% activity,"[5]; NEK6, Run 2",72.9%
same,% Inhibition Run 1,[6]; JNK3,62%
same,% Inhibition Run 2,[6]; JNK3,41.6%
same,"% Inhibition, Mean",[6]; JNK3,52%
same,mean % activity,[6]; JNK3,48%
same,% activity,"[6]; JNK3, Run 1",38%
same,% activity,"[6]; JNK3, Run 2",58.4%
CC(=O)[O-].CC(=O)[O-].CC(=O)[O-].CC(=O)[O-].CC(=O)[O-].CC(=O)[O-].[Zn+2].[Zn+2].[Zn+2].c1ccc(-c2csc(NCCN(CCNc3nc(-c4ccccn4)cs3)CCNc3nc(-c4ccccn4)cs3)n2)nc1.c1ccc(-c2csc(NCCN(CCNc3nc(-c4ccccn4)cs3)CCNc3nc(-c4ccccn4)cs3)n2)nc1 [[L2Zn3]6+],"% Inhibition, Mean",[1]; TGFBR1,41%
same,"% Inhibition, Run 1 / Run 2",[1]; TGFBR1,35% and 48%
same,mean % activity,[1]; TGFBR1,59%
same,% activity,"[1]; TGFBR1, duplicate runs",65% and 53%
same,"% Inhibition, Mean",[2],17%
same,mean % activity,[2],83%
same,% activity,[2]; duplicate runs,73% and 93%
same,"% Inhibition, Mean",[3],21%
same,mean % activity,[3],79%
same,% activity,[3]; duplicate runs,69% and 89%
same,"% Inhibition, Mean",[4],81%
same,"% Inhibition, Run 1 / Run 2",[4],83% and 79%
same,mean % activity,[4],19%
same,% Activity inhibition Mean,[4]; 10 µM,81.0%
same,% Activity inhibition Run 1,[4]; 10 µM,83%
same,% Activity inhibition Run 2,[4]; 10 µM,79%
same,% Activity remaining Run 1,[4]; 10 µM,17%
same,% Activity remaining Run 2,[4]; 10 µM,21%
same,% activity,[4]; duplicate runs,17% and 21%
same,"% Inhibition, Mean",[5]; NEK6,22%
same,"% Inhibition, Run 1 / Run 2",[5]; NEK6,25% and 20%
same,mean % activity,[5]; NEK6,78%
same,% activity,"[5]; NEK6, duplicate runs",75% and 81%
same,"% Inhibition, Mean",[6]; JNK3,33%
same,"% Inhibition, Run 1 / Run 2",[6]; JNK3,42% and 24%
same,mean % activity,[6]; JNK3,67%
same,% activity,"[6]; JNK3, duplicate runs",58% and 76%
